Our source for the IC50 and inhibition values is US7893069B2, “Substituted imidazo[2,1-b]thiazole compounds and uses thereof” (Gruenenthal GmbH, priority 2006, dated 2011).

Usually IC50 stands for the concentration that inhibits the measured activity by half. In general, inhibition refers to the relative decrease from the control value, in per cent. A higher inhibition goes with strong suppression.

Structures are written as SMILES. Where a name gives a salt, the structure may show the parent alone.

The first assay deals with T1, mGluR5 receptor (pig) (Sus scrofa, UniProt I3LUI7).
T1 construct: 450 μg protein from brain homogenate is incubated with 5 nM; from tissue; host or cells: pig brain halves without medulla, cerebellum and pons; homogenate, differential centrifugation
T1 sequence (I3LUI7 19-1212): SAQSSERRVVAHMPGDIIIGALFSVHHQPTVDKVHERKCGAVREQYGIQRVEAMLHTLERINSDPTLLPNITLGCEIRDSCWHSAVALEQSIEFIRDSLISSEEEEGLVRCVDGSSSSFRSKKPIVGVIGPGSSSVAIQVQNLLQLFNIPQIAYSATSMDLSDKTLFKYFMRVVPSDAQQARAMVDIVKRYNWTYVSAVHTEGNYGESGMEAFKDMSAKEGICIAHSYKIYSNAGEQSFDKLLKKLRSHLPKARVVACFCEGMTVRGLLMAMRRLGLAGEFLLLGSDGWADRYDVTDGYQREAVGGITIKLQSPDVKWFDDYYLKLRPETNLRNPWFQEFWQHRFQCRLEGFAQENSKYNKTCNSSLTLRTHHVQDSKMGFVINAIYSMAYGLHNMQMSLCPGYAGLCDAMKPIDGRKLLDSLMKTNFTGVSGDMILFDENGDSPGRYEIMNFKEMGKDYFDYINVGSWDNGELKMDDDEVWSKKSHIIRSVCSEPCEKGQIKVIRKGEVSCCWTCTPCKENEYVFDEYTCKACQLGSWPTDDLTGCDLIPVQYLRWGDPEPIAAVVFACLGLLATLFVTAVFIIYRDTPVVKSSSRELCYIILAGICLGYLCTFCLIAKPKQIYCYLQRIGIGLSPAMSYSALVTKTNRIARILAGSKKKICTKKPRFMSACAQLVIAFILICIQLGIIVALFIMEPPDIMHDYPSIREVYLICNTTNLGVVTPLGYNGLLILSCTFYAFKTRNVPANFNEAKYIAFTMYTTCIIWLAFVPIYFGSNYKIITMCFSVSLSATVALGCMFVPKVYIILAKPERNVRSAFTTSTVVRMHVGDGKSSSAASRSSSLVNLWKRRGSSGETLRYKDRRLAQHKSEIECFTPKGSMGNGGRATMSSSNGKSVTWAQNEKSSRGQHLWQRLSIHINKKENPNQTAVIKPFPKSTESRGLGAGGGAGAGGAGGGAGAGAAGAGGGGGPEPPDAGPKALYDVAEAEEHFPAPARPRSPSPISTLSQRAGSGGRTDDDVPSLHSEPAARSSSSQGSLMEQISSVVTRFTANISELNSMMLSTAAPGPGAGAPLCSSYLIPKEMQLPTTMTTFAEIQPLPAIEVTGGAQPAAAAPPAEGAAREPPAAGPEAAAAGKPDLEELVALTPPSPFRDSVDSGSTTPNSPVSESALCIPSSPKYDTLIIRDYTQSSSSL
Description: [3H]-MPEP binding assay, pig brain homogenate. Particulars: displacement of 5 nM [3H]-MPEP, 450 μg protein from pig brain homogenate, 60 min, room temperature; read-out: IC50 [3H]-MPEP bond mGluR5 receptor (pig). As to the method: Substituted imidazo[2,1-b]thiazole compounds corresponding to the foregoing formula I are likewise particularly preferred, which, after 60 minutes of incubation in 450 μg protein from pig brain homogenate at a temperature between 20° C. and 25° C. in a concentration of less than 2500 nM, preferably less than 1000 nM, particularly preferably less than 700 nM, very particularly preferably less than 100 nM, even more preferably less than 70 nM, bring about a 50-percent displacement of [^3H]-2-methyl-6-(3-methoxyphenyl)-ethynylpyridine which is present in a concentration of 5 nM. The determination of the displacement of [^3H]-2-methyl-6-(3-methoxyphenyl)-ethynyl-pyridine is performed as described hereinafter in the section Pharmacological Methods, I. Method for determining the inhibition of [^3H]-MPEP-bonding in the mGluR5 receptor bonding assay.
1. Method for Determining the Affinity to the mGluR5 Receptor
Pig brain homogenate is produced by homogenization (Polytron PT 3000, Kinematica AG, 10,000 rpm for 90 seconds) of pig brain halves without medulla, cerebellum and pons in buffer pH 8.0 (30 mM Hepes, Sigma, order no. H3375+1 tablet complete to 100 ml, Roche Diagnostics, order no. 1836145) in ratio 1:20 (brain weight/volume) and differential centrifugation at 900×g and 40,000×g. In each case, 450 μg protein from brain homogenate is incubated with 5 nM ^3-[H]-MPEP (Tocris, order no. R1212) (MPEP=2-methyl-6-(3-methoxyphenyl)-ethynylpyridine) in 250 μl incubation batches in 96 well microtitration plates and the compounds to be tested (10 μM in the test) in buffer (as above) at room temperature for 60 min.
Thereafter, the batches are filtered with the help of a Brandel Cell Harvester (Brandel, TYP Robotic 9600) on unifilter plates with glass fibre filter mats (Perkin Elmer, order no. 6005177) and subsequently washed with buffer (as above) 3 times with in each case 250 μl per sample. The filter plates are subsequently dried for 60 min at 55° C. 30 μL Ultima Gold™ scintillator is subsequently added per well (Packard BioScience, order no. 6013159) and the samples are measured after 3 hours on the β-counter (Mikrobeta, Perkin Elmer). The unspecific bond is determined by addition of 10 μM MPEP (Tocris, order no. 1212).
Consider `CC(C)(C)CC(C)(C)Nc1c(-c2ccc(C#Cc3ccccc3)s2)nc2sccn12` [Example 1, 6-(5-(phenylethynyl)thiophene-2-yl)-N-(2,4,4-trimethylpentane-2-yl)imidazo[2,1-b]thiazole-5-amine], for which the IC50 worked out at 2180 nM.

For `Cc1csc2nc(-c3ccc(C#Cc4ccccn4)s3)c(NC(C)(C)C)n12` [Example 3, N-tert-butyl-3-methyl-6-(5-(pyridine-2-ylethynyl)thiophene-2-yl)imidazo[2,1-b]thiazole-5-amine hydrochloride], the IC50 was found to be 12 nM.

Take `Cc1sc2nc(-c3ccc(C#Cc4ccccn4)s3)c(NC(C)(C)C)n2c1C` [Example 5, N-tert-butyl-2,3-dimethyl-6-(5-(pyridine-2-ylethinyl)thiophene-2-yl)-imidazo[2,1-b]thiazole-5-amine hydrochloride]: the IC50 was found to be 17 nM.

Turning to `CC(C)(C)Nc1c(-c2ccc(C#Cc3ccccn3)s2)nc2sc(Cl)cn12` [Example 6, N-tert-butyl-2-chloro-6-(5-(pyridine-2-ylethinyl)thiophene-2-yl)-imidazo[2,1-b]thiazole-5-amine hydrochloride], the half-inhibitory concentration (IC50) came out at 9.9 nM.

On to `COC(=O)c1cn2c(NC(C)(C)C)c(-c3ccc(C#Cc4ccccn4)s3)nc2s1` [Example 8, 5-(tert-butylamino)-6-(5-(pyridine-2-ylethinyl)thiophene-2-yl)-imidazo[2,1-b]thiazole-2-carbonic acid methylester hydrochloride], for which the IC50 came to 160 nM.

Consider `CC(C)(C)CC(C)(C)Nc1c(-c2ccc(C#Cc3ccccn3)s2)nc2sccn12` [Example 10], for which the half-inhibitory concentration (IC50) was 100 nM.

As to `Cc1cn2c(NC(C)(C)C)c(-c3ccc(C#Cc4ccccn4)cc3)nc2s1` [Example 11, N-tert-butyl-2-methyl-6-(4-(pyridine-2-ylethynyl)phenyl)imidazo[2,1-b]thiazole-5-amine], the IC50 was 20 nM.

Turning to `CC(C)(C)Nc1c(-c2ccc(C#Cc3ccccn3)o2)nc2sccn12` [Example 12, N-tert-butyl-6-(5-(pyridine-2-ylethynyl)furan-2-yl)imidazo[2,1-b]thiazole-5-amine], the IC50 was found to be 87 nM.

With `Nc1c(-c2ccc(C#Cc3ccccn3)s2)nc2sccn12` [Example 14, 6-(5-(pyridine-2-ylethynyl)thiophene-2-yl)imidazo[2,1-b]thiazole-5-amine], the half-inhibitory concentration (IC50) was found to be 140 nM.

With `CC(C)(C)Nc1c(-c2ccc(C#Cc3ncccn3)s2)nc2sccn12` [Example 15, N-tert-butyl-6-(5-(pyrimidine-2-ylethynyl)thiophene-2-yl)imidazo[2,1-b]thiazole-5-amine], the IC50 is 10 nM.

`CC(C)(C)Nc1c(-c2ccc(C#Cc3ncccc3F)s2)nc2sccn12` [Example 16, N-tert-butyl-6-(5-((3-fluoropyridine-2-yl)ethynyl)thiophene-2-yl)imidazo[2,1-b]thiazole-5-amine]: the 50% inhibitory concentration (IC50) worked out at 13 nM.

Turning to `CC(C)(C)Nc1c(-c2ccc(C#Cc3ccnc(F)c3)s2)nc2sccn12` [Example 17, N-tert-butyl-6-(5-((2-fluoropyridine-4-yl)ethynyl)thiophene-2-yl)imidazo[2,1-b]thiazole-5-amine], the IC50 was 18 nM.

For `CC(C)(C)Nc1c(-c2ccc(C#Cc3cccs3)s2)nc2sccn12` [Example 18, N-tert-butyl-6-(5-(thiophene-2-ylethynyl)thiophene-2-yl)imidazo[2,1-b]thiazole-5-amine], the IC50 amounted to 45 nM.

For `CC(C)(C)Nc1c(-c2ccc(C#Cc3nccs3)s2)nc2sccn12` [Example 19, N-tert-butyl-6-(5-(thiazole-2-ylethynyl)thiophene-2-yl)imidazo[2,1-b]thiazole-5-amine], the half-inhibitory concentration (IC50) turned out to be 24 nM.

The assay is the same for the next values; noted with them: test compound 10 μM; inhibition of [3H]-MPEP binding, pig brain homogenate.
Turning to `Cc1csc2nc(-c3ccc(C#Cc4ccccc4)s3)c(NC(C)(C)C)n12` [Example 13, N-tert-butyl-3-methyl-6-(5-(phenylethynyl)thiophene-2-yl)imidazo[2,1-b]thiazole-5-amine], testing at 10 µM gave an inhibition of 48%.
